Laboratory results taken from paper PMC8329197, “Compounds targeting OSBPL7 increase ABCA1-dependent cholesterol efflux preserving kidney function in two models of kidney disease” (Nature Communications, 2021).
“And” between values parts separate entries of the source, which are not always exact repeats. Equal values may be shown once.

What was measured:
[1] = test system: Adriamycin (ADR)-induced nephropathy in Balb/c mice; assay: Adriamycin-induced nephropathy, dose-finding pilot study: ACR and body weight time course; settings: for ACR in pilot study: days 7-28; for Body Weight / ACR in spot urine: ADR, individual mice
human podocytes = assay: apoAI-mediated cholesterol efflux in human podocytes; assay type: cell-based; settings: for ApoA1-mediated cholesterol efflux (%) in podocytes: single experiments; for Increase in apoAI-mediated cholesterol efflux vs. untreated cells: Cpd G 10 µM, Cpd A 5 µM, Cpd C 1 µM
Method: Cell lines were purchased from ATCC and subcultured for no more than passage 15, except for human podocytes, which were originally from Dr Jochen Reiser. Conditionally immortalized human podocytes were cultured under permissive conditions at 33 °C, in RPMI medium (Corning) containing 10% FBS (GIBCO), 1% penicillin/streptomycin, 0.01 mg/ml recombinant human insulin, 0.0055 mg/ml human transferrin (substantially iron-free), and 0.005 μg/ml sodium selenite (ITS, Corning). To induce differentiation, podocytes were cultured at 37 °C for 14 days in RPMI medium containing 10% FBS (GIBCO) and 1% penicillin/streptomycin. Differentiated podocytes were starved in RPMI-0.2% FBS for 18 h and then treated with 1 μM, 5 μM, and 10 μM of compounds freshly prepared in DMSO for 18 h at 37 °C as indicated.
Human podocytes differentiated for 13 days were labeled for 24 h at 37 °C in RPMI medium containing 2% FBS and [^3H]-cholesterol (1 μCi/ml, American Radiolabeled Chemicals). Cells were then washed 3 times with PBS and incubated with RPMI supplemented with 0.2% fat free-BSA (Sigma) with or without compounds for 18-h at 37 °C. The compounds were used at the following concentrations: Cpd C (1 μM), Cpd A (1 μM, 5 μM) and Cpd G (1 μM, 5 μM, 10 μM). Following the 18-h incubation, human apoAI (Calbiochem) was added to the media, (20 μg/mL final concentration) and the cells were incubated for another 18 h at 37 °C. Aliquots of medium collected before (T = 0 h) and after (T = 18 h) the addition of apoAI were centrifuged at 12,000 × g for 5 min and the radioactivity in the supernatant was counted by liquid scintillation. Cells were then washed with PBS, lysed 0.1% SDS, 0.1M NaOH and the radioactivity in the lysates was quantified by liquid scintillation. apoAI-mediated cholesterol efflux, expressed as %, was calculated as the amount of label released to the medium after adding apoAI (the difference in radioactivity in the medium before and after adding ApoA1) divided by the amount of total label in each well (radioactivity released to the media plus radioactivity in the lysed cells).

ABCA1 protein = assay: Cell fractionation: ABCA1 in plasma membrane and microsomal fractions of podocytes; assay type: cell-based, human; settings: Cpd A 5 µM, Cpd G 10 µM
Method: Lysates, or cell fractions were incubated in Laemmli buffer at 55 °C for 10 min under reducing conditions. A total of 30 μg of protein from cell lysates or one-third of the volume collected in cell fraction preparations was separated by SDS-PAGE in 4–20% gradient gels (Biorad) and proteins were then transferred to PVDF membranes. After blocking with 5% TBS-milk, membranes were probed with primary antibodies overnight at 4 °C. The following primary antibodies were used: mouse anti-ABCA1 (Abcam; 1:1000), rabbit anti-GAPDH antibody (Millipore; 1:10,000), mouse anti-actin (CP01, Millipore 1:10,000), anti-MEK, anti-ERp72, anti-V5 and anti-Na^+/K^+ ATPase (Cell Signaling; all 1:1000), and rabbit anti-OSBPL7 (Sigma; 1:1000). After washing, membranes were incubated with anti-rabbit or and anti-mouse IgG-HRP antibodies (Promega, 1:10,000). Signals were detected after incubation with Westernbright ECL HRP substrate (Advansta) and luminescence signals were captured with Azure C600 Gel Imaging workstation (Azure Biosystems Inc, USA) or X-ray films.
Differentiated podocytes were treated with compounds Cpd C (1 μM), Cpd A (5 μM), or Cpd G (10 μM) for 18 h, washed and then harvested in ice-cold PBS. Cells were centrifuged at 1000 × g for 5 min, the supernatant was carefully removed, and the pellet resuspended in hypotonic buffer (15 mM KCl, 1.5 mM MgCl2, 10 mM HEPES and 1 mM DTT) supplemented with a protease inhibitor cocktail (Roche). Cells were disrupted with a glass douncer, and sucrose was added to achieve final concentration of 227 mM. Cell lysates were centrifuged at 1000 × g for 30 min at 4 °C. The supernatant was then transferred to a new tube and centrifuged at 10,000 × g for 15 min at 4 °C. The pellet, containing the microsomal fraction was collected and the supernatant was transferred to a new tube and centrifuged at 100,000 × g for 1 h at 4 °C. The pelleted plasma membrane fraction was collected and the supernatant, containing the organelle-free cytosolic fraction, was concentrated in Vivaspin 500 filter columns. Western blot was performed using antibodies for ABCA1 and specific markers for each membrane fraction as described above. Na^+/K^+ ATPase was used to identify the plasma membrane fraction, ERp72 as a marker for the microsomal-enriched fraction, and MEK as the control for the non-membranous cytosolic fraction.

[2] = 30 mg/Kg/day, 7 days after inj, 30 mg/kg/day
[3] = 30 mg/Kg/day, 14 days after inj, 30 mg/kg/day
[4] = 30 mg/Kg/day, 21 days after inj, 30 mg/kg/day
[5] = 30 mg/Kg/day, 28 days after inj, 30 mg/kg/day
[6] = 100 mg/Kg/day, 7 days after inj, 100 mg/kg/day
[7] = 100 mg/Kg/day, 14 days after inj, 100 mg/kg/day
[8] = 100 mg/Kg/day, 21 days after inj, 100 mg/kg/day
[9] = 100 mg/Kg/day, 28 days after inj, 100 mg/kg/day
[10] = 10 mg/Kg/day, 7 days after inj, 10 mg/kg/day
[11] = 10 mg/Kg/day, 14 days after inj, 10 mg/kg/day
[12] = 10 mg/Kg/day, 21 days after inj, 10 mg/kg/day
[13] = 10 mg/Kg/day, 28 days after inj, 10 mg/kg/day
[14] = ratio, Cpd C 1 µM, single preparations

In the case of O=C(N[C@@H]1CCCC[C@H]1O)c1cnc(OCC(F)(F)F)c(-c2ccc(Cl)c(Cl)c2)c1 [Cpd G], the “ACR in pilot study” value ([1]; 30 mg/kg/day oral) is reported as “to a lesser extent”, the “ACR in pilot study” value ([1]; 100 mg/kg/day oral) is reported as “significantly improved” and the “Body Weight” value ([1]; 30 mg/Kg/day, 0 days after inj, 30 mg/kg/day) is reported as 20 grams and 18 grams and 19 grams (2×) and 23 grams. The “ACR in spot urine” value [1, 2] was 0.007 mg Albumin/ mg Creatinine in urine and 0.03 mg Albumin/ mg Creatinine in urine and 0.12 mg Albumin/ mg Creatinine in urine and 31.944 mg Albumin/ mg Creatinine in urine and 0.643 mg Albumin/ mg Creatinine in urine, the “Body Weight” value [1, 2] was 18 grams and 19 grams (3×) and 23 grams and the “ACR in spot urine” value [1, 3] was 51.688 mg Albumin/ mg Creatinine in urine and 33.252 mg Albumin/ mg Creatinine in urine and 84.069 mg Albumin/ mg Creatinine in urine and 36.836 mg Albumin/ mg Creatinine in urine and 5.571 mg Albumin/ mg Creatinine in urine. The “Body Weight” value [1, 3] was 18 grams and 19 grams (2×) and 16 grams and 23 grams, the “ACR in spot urine” value [1, 4] was 85.027 mg Albumin/ mg Creatinine in urine and 29.222 mg Albumin/ mg Creatinine in urine and 44.604 mg Albumin/ mg Creatinine in urine and 23.436 mg Albumin/ mg Creatinine in urine and 5.121 mg Albumin/ mg Creatinine in urine and the “Body Weight” value [1, 4] was 17 grams and 19 grams (2×) and 18 grams and 15 grams. For the same compound, the “ACR in spot urine” value [1, 5] was 34.615 mg Albumin/ mg Creatinine in urine and 3.13 mg Albumin/ mg Creatinine in urine and 6.059 mg Albumin/ mg Creatinine in urine and 7.143 mg Albumin/ mg Creatinine in urine and 2.473 mg Albumin/ mg Creatinine in urine, the “Body Weight” value [1, 5] was 16 grams and 20 grams (2×) and 17 grams and 15 grams and the “Body Weight” value ([1]; 100 mg/Kg/day, 0 days after inj, 100 mg/kg/day) was 20 grams (3×) and 16 grams and 22 grams. The “ACR in spot urine” value [1, 6] was 0.061 mg Albumin/ mg Creatinine in urine and 0.016 mg Albumin/ mg Creatinine in urine and 0.015 mg Albumin/ mg Creatinine in urine and 0.233 mg Albumin/ mg Creatinine in urine and 9.666 mg Albumin/ mg Creatinine in urine, the “Body Weight” value [1, 6] was 19 grams (3×) and 16 grams and 22 grams and the “ACR in spot urine” value [1, 7] was 3.994 mg Albumin/ mg Creatinine in urine and 0.535 mg Albumin/ mg Creatinine in urine and 50.828 mg Albumin/ mg Creatinine in urine and 1.336 mg Albumin/ mg Creatinine in urine and 89.551 mg Albumin/ mg Creatinine in urine. The “Body Weight” value [1, 7] was 20 grams (2×) and 19 grams (2×) and 15 grams, the “ACR in spot urine” value [1, 8] was 0.238 mg Albumin/ mg Creatinine in urine and 0.124 mg Albumin/ mg Creatinine in urine and 0.794 mg Albumin/ mg Creatinine in urine and 8.14 mg Albumin/ mg Creatinine in urine and the “Body Weight” value [1, 8] was 20 grams (3×) and 15 grams and 19 grams. The “ACR in spot urine” value [1, 9] was 0.09 mg Albumin/ mg Creatinine in urine and 0.018 mg Albumin/ mg Creatinine in urine and 0.86 mg Albumin/ mg Creatinine in urine and 0.271 mg Albumin/ mg Creatinine in urine and 3.053 mg Albumin/ mg Creatinine in urine, the “Body Weight” value [1, 9] was 20 grams (2×) and 21 grams and 20.5 grams and 16 grams and the “ApoA1-mediated cholesterol efflux (%) in podocytes” value (human podocytes; 1 uM) was 0.3% and 1.2% and 1.6%. For the same compound, the “ApoA1-mediated cholesterol efflux (%) in podocytes” value (human podocytes; 5 uM) was 0% and 2.5% and 2.3%, the “ApoA1-mediated cholesterol efflux (%) in podocytes” value (human podocytes; 10 uM) was 4.4% and 7.9% and the “Increase in apoAI-mediated cholesterol efflux vs. untreated cells” value (human podocytes) was ~2 fold. For the same compound, the “ABCA1 at the plasma membrane” value (ABCA1 protein; podocytes) was “increased ABCA1 at the plasma membrane” and the “ABCA1 in microsomal fractions” value (ABCA1 protein; podocytes) was “did not increase ABCA1 in microsomal fractions”.

Cc1oc(-c2cccc(C(F)(F)F)c2)nc1Cn1c(C)cc2cc(C(O)(C(F)(F)F)C(F)(F)F)ccc21 [Cpd C, reference compound] was tested, and the “Body Weight” value ([1]; 10 mg/Kg/day, 0 days after inj, 10 mg/kg/day) was 20 grams and 18 grams (2×) and 19 grams (2×), the “ACR in spot urine” value [1, 10] was 0.033 mg Albumin/ mg Creatinine in urine and 0.087 mg Albumin/ mg Creatinine in urine and 0.021 mg Albumin/ mg Creatinine in urine and 0.039 mg Albumin/ mg Creatinine in urine and 0.361 mg Albumin/ mg Creatinine in urine and the “Body Weight” value [1, 10] was 19 grams (2×) and 17 grams and 18 grams (2×). For the same compound, the “ACR in spot urine” value [1, 11] was 43.998 mg Albumin/ mg Creatinine in urine and 97.732 mg Albumin/ mg Creatinine in urine and 170.881 mg Albumin/ mg Creatinine in urine and 0.773 mg Albumin/ mg Creatinine in urine and 96.907 mg Albumin/ mg Creatinine in urine, the “Body Weight” value [1, 11] was 18 grams (2×) and 15 grams and 17 grams (2×) and the “ACR in spot urine” value [1, 12] was 110.345 mg Albumin/ mg Creatinine in urine and 164.518 mg Albumin/ mg Creatinine in urine and 91.2 mg Albumin/ mg Creatinine in urine and 9.219 mg Albumin/ mg Creatinine in urine and 93.57 mg Albumin/ mg Creatinine in urine. The “Body Weight” value [1, 12] was 18 grams (2×) and 13 grams and 19 grams and 16 grams, the “ACR in spot urine” value [1, 13] was 28.989 mg Albumin/ mg Creatinine in urine and 87.25 mg Albumin/ mg Creatinine in urine and 19.88 mg Albumin/ mg Creatinine in urine and 5.463 mg Albumin/ mg Creatinine in urine and 97.01 mg Albumin/ mg Creatinine in urine and the “Body Weight” value [1, 13] was 19 grams (2×) and 13 grams and 20 grams and 16 grams. The “ApoA1-mediated cholesterol efflux (%) in podocytes” value (human podocytes; 1 uM) was 4.5% and 5% and 2.7% and 7.8% and 4.9% and 4.1% and 8.1%, the “Increase in apoAI-mediated cholesterol efflux vs. untreated cells” value (human podocytes) was ~2 fold and the “MICROSOMAL FRACTION:ABCA1/ERp72” value (ABCA1 protein; [14]) was 1.10 and 1.82 and 1.06. The “PLASMA MEMBRANE FRACTION: ABCA1/NaK ATPase” value (ABCA1 protein; [14]) was 1.10 and 0.65 and 0.77 and 1.14.
